Reference: ChEMBL document CHEMBL5724914, “Linking interpersonal differences in gut microbiota composition and drug biotransformation activity” (2024)

Assays:
[1] = human gut metagenome, 24 h, 2 µM
[2] = The drug is tested on Z-002 corresponding to rabbit gut metagenome with ENA study accession number: PRJEB37062 and ENA sample accession number: ERS12561802 for biotransformation under anaerobic condition. The drug concentrations were measured over 9 timepoints collected between 0 and 24 hours of incubation by liquid-chromatography-coupled mass spectrometry (LC–MS); details: 2 µM
[3] = The drug is tested on Z-018 corresponding to pig gut metagenome with ENA study accession number: PRJEB37062 and ENA sample accession number: ERS12561817 for biotransformation under anaerobic condition. The drug concentrations were measured over 9 timepoints collected between 0 and 24 hours of incubation by liquid-chromatography-coupled mass spectrometry (LC–MS); details: 2 µM
[4] = human gut metagenome, 24 h, 2 µM; remark: listed apart in the source
[5] = The drug is tested on WLS-098 corresponding to human gut metagenome with ENA study accession number: PRJEB37062 and ENA sample accession number: ERS12561754 for biotransformation under anaerobic condition. The drug concentrations were measured over 9 timepoints collected between 0 and 24 hours of incubation by liquid-chromatography-coupled mass spectrometry (LC–MS); details: 2 µM
[6] = human gut metagenome, 24 h, 2 µM; remark: listed apart in the source
[7] = human gut metagenome, 24 h, 2 µM; remark: listed apart in the source
[8] = The drug is tested on Z-020 corresponding to rabbit gut metagenome with ENA study accession number: PRJEB37062 and ENA sample accession number: ERS12561819 for biotransformation under anaerobic condition. The drug concentrations were measured over 9 timepoints collected between 0 and 24 hours of incubation by liquid-chromatography-coupled mass spectrometry (LC–MS); details: 2 µM
[9] = The drug is tested on WLS-170 corresponding to human gut metagenome with ENA study accession number: PRJEB37062 and ENA sample accession number: ERS12561762 for biotransformation under anaerobic condition. The drug concentrations were measured over 9 timepoints collected between 0 and 24 hours of incubation by liquid-chromatography-coupled mass spectrometry (LC–MS); details: 2 µM
[10] = human gut metagenome, 24 h, 2 µM; remark: listed apart in the source
[11] = The drug is tested on WLS-052 corresponding to human gut metagenome with ENA study accession number: PRJEB37062 and ENA sample accession number: ERS12561747 for biotransformation under anaerobic condition. The drug concentrations were measured over 9 timepoints collected between 0 and 24 hours of incubation by liquid-chromatography-coupled mass spectrometry (LC–MS); details: 2 µM
[12] = human gut metagenome, 24 h, 2 µM; remark: listed apart in the source
[13] = human gut metagenome, 24 h, 2 µM; remark: listed apart in the source
[14] = The drug is tested on WLS-006 corresponding to human gut metagenome with ENA study accession number: PRJEB37062 and ENA sample accession number: ERS12561741 for biotransformation under anaerobic condition. The drug concentrations were measured over 9 timepoints collected between 0 and 24 hours of incubation by liquid-chromatography-coupled mass spectrometry (LC–MS); details: 2 µM
[15] = human gut metagenome, 24 h, 2 µM; remark: listed apart in the source
[16] = human gut metagenome, 24 h, 2 µM; remark: listed apart in the source
[17] = The drug is tested on Z-007 corresponding to rat gut metagenome with ENA study accession number: PRJEB37062 and ENA sample accession number: ERS12561807 for biotransformation under anaerobic condition. The drug concentrations were measured over 9 timepoints collected between 0 and 24 hours of incubation by liquid-chromatography-coupled mass spectrometry (LC–MS); details: 2 µM
[18] = The drug is tested on WLS-082 corresponding to human gut metagenome with ENA study accession number: PRJEB37062 and ENA sample accession number: ERS12561751 for biotransformation under anaerobic condition. The drug concentrations were measured over 9 timepoints collected between 0 and 24 hours of incubation by liquid-chromatography-coupled mass spectrometry (LC–MS); details: 2 µM
[19] = The drug is tested on Z-023 corresponding to metagenome with ENA study accession number: PRJEB37062 and ENA sample accession number: ERS12561822 for biotransformation under anaerobic condition. The drug concentrations were measured over 9 timepoints collected between 0 and 24 hours of incubation by liquid-chromatography-coupled mass spectrometry (LC–MS); details: 2 µM
[20] = human gut metagenome, 24 h, 2 µM; remark: listed apart in the source
Also: call rule not given here.

SMILES | Bacterial Biotransformation [1] | Bacterial Biotransformation [2] | Bacterial Biotransformation [3] | Bacterial Biotransformation [4] | Bacterial Biotransformation [5] | Bacterial Biotransformation [6] | Bacterial Biotransformation [7] | Bacterial Biotransformation [8] | Bacterial Biotransformation [9] | Bacterial Biotransformation [10] | Bacterial Biotransformation [11] | Bacterial Biotransformation [12] | Bacterial Biotransformation [13] | Bacterial Biotransformation [14] | Bacterial Biotransformation [15] | Bacterial Biotransformation [16] | Bacterial Biotransformation [17] | Bacterial Biotransformation [18] | Bacterial Biotransformation [19] | Bacterial Biotransformation [20]
CCOC(=O)[C@H](CCc1ccccc1)N[C@@H](C)C(=O)N1[C@H](C(=O)O)C[C@@H]2CCC[C@@H]21 | Compound metabolized | Compound metabolized | Compound metabolized | Compound metabolized | Compound metabolized | Compound metabolized | Compound metabolized | Compound metabolized | Compound metabolized | Compound metabolized | Compound metabolized | Compound metabolized | Compound metabolized | Compound metabolized | Compound metabolized | Compound metabolized | Compound metabolized | Compound metabolized | Compound metabolized | Compound metabolized
CCN(CC)CCNC(C(=O)OCCC(C)C)c1ccccc1.Cl.Cl (configuration not stated) | Compound metabolized | Compound metabolized | Compound metabolized | Compound metabolized | Compound metabolized | Compound NOT metabolized | Compound metabolized | Compound metabolized | Compound metabolized | Compound metabolized | Compound NOT metabolized | Compound metabolized | Compound metabolized | Compound metabolized | Compound metabolized | Compound NOT metabolized | Compound NOT metabolized | Compound metabolized | Compound NOT metabolized | Compound metabolized
C[C@@H]1CC[C@H]2[C@@H](C)C(=O)O[C@@H]3O[C@@]4(C)CC[C@@H]1[C@]32OO4 [ARTEMISININ] | Compound metabolized | – | Compound metabolized | Compound metabolized | Compound metabolized | Compound metabolized | – | Compound metabolized | Compound metabolized | Compound NOT metabolized | Compound metabolized | Compound metabolized | – | Compound metabolized | Compound metabolized | Compound metabolized | – | Compound metabolized | Compound metabolized | Compound metabolized
CC[C@H](C)C(=O)O[C@H]1C[C@@H](C)C=C2C=C[C@H](C)[C@H](CC[C@@H]3C[C@@H](O)CC(=O)O3)[C@H]21 [LOVASTATIN] | Compound metabolized | Compound NOT metabolized | Compound metabolized | Compound NOT metabolized | Compound NOT metabolized | – | Compound NOT metabolized | Compound metabolized | Compound NOT metabolized | Compound NOT metabolized | Compound NOT metabolized | Compound NOT metabolized | Compound NOT metabolized | Compound NOT metabolized | Compound metabolized | – | Compound NOT metabolized | Compound NOT metabolized | Compound metabolized | Compound NOT metabolized
Cc1nc2n(c(=O)c1CCN1CCC(c3noc4cc(F)ccc34)CC1)CCCC2 [RISPERIDONE] | Compound metabolized | Compound metabolized | Compound metabolized | Compound metabolized | – | Compound metabolized | Compound metabolized | Compound metabolized | Compound metabolized | Compound metabolized | Compound metabolized | Compound metabolized | Compound metabolized | Compound metabolized | Compound metabolized | Compound metabolized | Compound metabolized | Compound metabolized | Compound metabolized | Compound metabolized
COc1ccc2[nH]c([S+]([O-])Cc3ncc(C)c(OC)c3C)nc2n1 (configuration not stated) [TENATOPRAZOLE] | Compound metabolized | Compound NOT metabolized | Compound metabolized | Compound metabolized | Compound metabolized | Compound metabolized | – | Compound NOT metabolized | Compound NOT metabolized | Compound metabolized | Compound metabolized | Compound metabolized | Compound NOT metabolized | Compound metabolized | Compound metabolized | Compound metabolized | Compound metabolized | Compound metabolized | Compound NOT metabolized | Compound NOT metabolized
